Results published in patent US8859535B2, “Hydroxy substituted isoquinolinone derivatives” (Novartis AG, priority 2011, dated 2014).

Target: T1, human MDM2 protein (amino acids 2-188) (Homo sapiens, UniProt Q00987)
T1 construct: human MDM2 protein (amino acids 2-188); made in house
Experiment: p53-MDM2 TR-FRET assay, modified (p53-MDM2 Assay 2)
Assay type: binding
Settings: 0.1 nM MDM2, 0.1 nM Europium labeled streptavidin; read-out: IC50 (nM) of p53-Hdm2 inhibition (TR-FRET) Assay 2
Experimental: Time Resolved Fluorescence Energy Transfer (TR-FRET) Assay
The inhibition of p53-MDM2 and p53-MDM4 interactions is measured by time resolved fluorescence energy transfer (TR-FRET). Fluorescence energy transfer (or Foerster resonance energy transfer) describes an energy transfer between donor and acceptor fluorescent molecules. For this assay, human MDM2 protein (amino acids 2-188) and human MDM4 protein (amino acids 2-185), tagged with a C-terminal biotin moiety, are used in combination with a Europium labeled streptavidin (Perkin Elmer, Inc., Waltham, Mass., USA) serving as the donor fluorophore. The p53 derived, Cy5 labeled peptide Cy5-TFSDLWKLL (p53 aa18-26) is the energy acceptor. Upon excitation of the donor molecule at 340 nm, binding interaction between MDM2 or MDM4 and the p53 peptide induces energy transfer and enhanced response at the acceptor emission wavelength at 665 nm. Disruption of the formation of the p53-MDM2 or p53-MDM4 complex due to an inhibitor molecule binding to the p53 binding site of MDM2 or MDM4 results in increased donor emission at 620 nm. The ratiometric FRET assay readout is calculated from the raw data of the two distinct fluorescence signals measured in time resolved mode (fluorescence 665 nm/fluorescence 620 nm×1000).
After addition of 1.25 nM MDM2-biotinylated or 2.5 nM MDM4-biotinylated (internal preparations), and 0.625 nM Europium labeled streptavidin (Perkin Elmer), the solution is pre-incubated for 15 minutes at room temperature, then 10 nM Cy5-p53 peptide (internal preparation) is added before an incubation at room temperature for 15 minutes prior to reading the plate. For measurement of samples, a Victor II microplate reader (Perkin Elmer) is used with the following settings: Excitation 340 nm, Emission Donor 620 nm and Emission Acceptor 665 nm. IC50 values are calculated by curve fitting using XLfit. If not specified, reagents are purchased from Sigma-Aldrich Chemie GmBH, Buchs, Switzerland.
This assay was used to evaluate compounds displaying inhibition of p53-MDM2 interaction and p53-MDM4 interaction at IC50s of 0.005 to 50 μM (p53-MDM2 Assay 1 and p53-MDM4 Assay 1, respectively). For selected compounds displaying IC50s between […] on MDM2, a slightly modified assay is used with the following adaptations: 0.1 nM MDM2, 0.1 nM Europium labeled streptavidin and Tecan genios Pro is used as a microplate reader for the fluorescence measurements (p53-MDM2 Assay 2).

T1 sequence (Q00987 2-188): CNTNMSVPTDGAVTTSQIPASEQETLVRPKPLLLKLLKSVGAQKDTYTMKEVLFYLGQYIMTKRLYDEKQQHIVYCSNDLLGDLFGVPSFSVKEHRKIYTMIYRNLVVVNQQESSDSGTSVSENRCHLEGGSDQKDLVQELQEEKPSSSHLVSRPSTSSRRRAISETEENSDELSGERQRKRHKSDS

SMILES	IC50
[2H]C([2H])([2H])Oc1cc2c(cc1OC(C)C)[C@H](c1ccc(Cl)cc1)N(c1ccc(C(C)(O)C3CCS(=O)(=O)CC3)cc1)C(=O)C2 (mixture of isomers) [Example 150, (S)-1-(4-Chloro-phenyl)-2-{4-[1-(1,1-dioxo-hexahydro-1-thiopyran-4-yl)-1-hydroxy-ethyl]-phenyl}-7-isopropoxy-6-d^3-methoxy-1,4-dihydro-2H-isoquinolin-3-one]	4.43 nM
COc1cc2c(cc1OC(C)C)[C@H](c1ccc(Cl)cc1)N(c1ccc([C@](C)(O)C3CC(C)(C)OC(C)(C)C3)cc1)C(=O)C2 (single isomer, unassigned) [Example 164]	509 nM
COc1cc2c(cc1OC(C)C)[C@H](c1ccc(Cl)cc1)N(c1ccc([C@](C)(O)C3CCN(C4COC4)CC3)cc1)C(=O)C2 (single isomer, unassigned) [Example 126]	58.6 nM
COc1cc2c(cc1OC(C)C)[C@H](c1ccc(Cl)cc1)N(c1ccc(C(C)(O)C3CN(C4COC4)C3)cc1)C(=O)C2 (stereo partly drawn) [Example 103, (S)-1-(4-Chloro-phenyl)-2-{4-[1-hydroxy-1-(1-oxetan-3-yl-azetidin-3-yl)-ethyl]-phenyl}-7-isopropoxy-6-methoxy-1,4-dihydro-2H-isoquinolin-3-one]	9.18 nM
[2H]C([2H])([2H])Oc1cc2c(cc1OC(C)C)[C@H](c1ccc(Cl)cc1)N(c1ccc(C(C)(O)C3CCN(C=O)CC3)cc1)C(=O)C2 (stereo partly drawn) [Example 151, 4-(1-{4-[(S)-1-(4-Chloro-phenyl)-7-isopropoxy-6-d^3-methoxy-3-oxo-3,4-dihydro-1H-isoquinolin-2-yl]-phenyl}-1-hydroxy-ethyl)-piperidine-1-carbaldehyde]	2.09 nM
COc1cc2c(cc1OC(C)C)[C@H](c1ccc(Cl)cc1)N(c1ccc([C@@](C)(O)C34CCC(CC3)C4)cc1)C(=O)C2 (single isomer, unassigned) [Example 139]	2.72 nM
[2H]C([2H])([2H])Oc1cc2c(cc1OC(C)C)[C@H](c1ccc(Cl)cc1)N(c1ccc([C@](C)(O)C3CCN(C=O)CC3)cc1)C(=O)C2 (single isomer, unassigned) [Example 154]	78.7 nM
[2H]C([2H])([2H])Oc1cc2c(cc1OC(C)C)[C@H](c1ccc(Cl)cc1)N(c1ccc([C@](C)(O)C3CCS(=O)(=O)CC3)cc1)C(=O)C2 (single isomer, unassigned) [Example 152]	152 nM
CCN1C2CCCC1CC(C(C)(O)c1ccc(N3C(=O)Cc4cc(OC)c(OC(C)C)cc4[C@@H]3c3ccc(Cl)cc3)cc1)C2 (stereo partly drawn) [Example 122, (S)-1-(4-Chloro-phenyl)-2-{4-[1-(9-ethyl-9-aza-bicyclo[3.3.1]non-3-yl)-1-hydroxy-ethyl]-phenyl}-7-isopropoxy-6-methoxy-1,4-dihydro-2H-isoquinolin-3-one]	2.31 nM
[2H]C([2H])([2H])Oc1cc2c(cc1OC(C)C)[C@H](c1ccc(Cl)cc1)N(c1ccc([C@@](C)(O)C3CCN(C=O)CC3)cc1)C(=O)C2 (single isomer, unassigned) [Example 155]	1.23 nM
COc1cc2c(cc1OC(C)C)[C@H](c1ccc(Cl)cc1)N(c1ccc([C@@](C)(O)C3CC(C)(C)OC(C)(C)C3)cc1)C(=O)C2 (single isomer, unassigned) [Example 163]	1.26 nM
COc1cc2c(cc1OC(C)C)[C@H](c1ccc(Cl)cc1)N(c1ccc(C(C)(O)C3CC4CCCC(C3)N4C3COC3)cc1)C(=O)C2 (stereo partly drawn) [Example 120, (S)-1-(4-Chloro-phenyl)-2-{4-[1-hydroxy-1-(9-oxetan-3-yl-9-aza-bicyclo[3.3.1]non-3-yl)-ethyl]-phenyl}-7-isopropoxy-6-methoxy-1,4-dihydro-2H-isoquinolin-3-one]	4.67 nM
COc1cc2c(cc1OC(C)C)[C@H](c1ccc(Cl)cc1)N(c1ccc([C@](C)(O)C3CC4CCC(C3)O4)cc1)C(=O)C2 (single isomer, unassigned) [Example 160]	41.9 nM
COc1cc2c(cc1OC(C)C)[C@H](c1ccc(Cl)cc1)N(c1ccc(C(C)(O)C3CCN(C[C@@H](O)CO)CC3)cc1)C(=O)C2 (stereo partly drawn) [Example 130, (S)-1-(4-Chloro-phenyl)-2-(4-{1-[1-((R)-2,3-dihydroxy-propyl)-piperidin-4-yl]-1-hydroxy-ethyl}-phenyl)-7-isopropoxy-6-methoxy-1,4-dihydro-2H-isoquinolin-3-one]	2.08 nM
CNC(=O)N1C2CCCC1CC(C(C)(O)c1ccc(N3C(=O)Cc4cc(OC)c(OC(C)C)cc4[C@@H]3c3ccc(Cl)cc3)cc1)C2 (stereo partly drawn) [Example 119, 3-(1-{4-[(S)-1-(4-Chloro-phenyl)-7-isopropoxy-6-methoxy-3-oxo-3,4-dihydro-1H-isoquinolin-2-yl]-phenyl}-1-hydroxy-ethyl)-9-aza-bicyclo[3.3.1]nonane-9-carboxylic acid methylamide]	1.47 nM
COc1cc2c(cc1OC(C)C)[C@H](c1ccc(Cl)cc1)N(c1ccc([C@](C)(O)C34CCC(CC3)C4)cc1)C(=O)C2 (single isomer, unassigned) [Example 140]	305 nM
COc1cc2c(cc1OC(C)C)[C@H](c1ccc(Cl)cc1)N(c1ccc([C@](C)(O)C3CC4CCCC(C3)S4(=O)=O)cc1)C(=O)C2 (stereo partly drawn) [Example 176, (S)-1-(4-Chloro-phenyl)-2-{4-[(R)-1-(9,9-dioxo-9-thia-bicyclo[3.3.1]non-3-yl)-1-hydroxy-ethyl]-phenyl}-7-isopropoxy-6-methoxy-1,4-dihydro-2H-isoquinolin-3-one]	98 nM
COc1cc2c(cc1OC(C)C)[C@H](c1ccc(Cl)cc1)N(c1ccc(C(C)(O)[C@H]3CCCNC3)cc1)C(=O)C2 (stereo partly drawn) [Example 180, (S)-1-(4-Chloro-phenyl)-2-[4-((S)-1-hydroxy-1-piperidin-3-yl-ethyl)-phenyl]-7-isopropoxy-6-methoxy-1,4-dihydro-2H-isoquinolin-3-one]	2.25 nM
COc1cc2c(cc1OC(C)C)[C@H](c1ccc(Cl)cc1)N(c1ccc([C@@](C)(O)C3CCN(C(=O)COC(C)=O)CC3)cc1)C(=O)C2 (single isomer, unassigned) [Example 128]	1.34 nM
COc1cc2c(cc1OC(C)C)[C@H](c1ccc(Cl)cc1)N(c1ccc([C@](C)(O)C3CCN(C(=O)COC(C)=O)CC3)cc1)C(=O)C2 (single isomer, unassigned) [Example 129]	99.8 nM
COc1cc2c(cc1OC(C)C)[C@H](c1ccc(Cl)cc1)N(c1ccc(C(C)(O)C3CC4CCCC(C3)N4C(=O)CO)cc1)C(=O)C2 (stereo partly drawn) [Example 123, (S)-1-(4-Chloro-phenyl)-2-(4-{1-hydroxy-1-[9-(2-hydroxy-acetyl)-9-aza-bicyclo[3.3.1]non-3-yl]-ethyl}-phenyl)-7-isopropoxy-6-methoxy-1,4-dihydro-2H-isoquinolin-3-one]	4.2 nM
COc1cc2c(cc1OC(C)C)[C@H](c1ccc(Cl)cc1)N(c1ccc(C(C)(O)C34CCC(CC3)OC4)cc1)C(=O)C2 (stereo partly drawn) [Example 178, (S)-1-(4-Chloro-phenyl)-2-{4-[1-hydroxy-1-(2-oxa-bicyclo[2.2.2]oct-4-yl)-ethyl]-phenyl}-7-isopropoxy-6-methoxy-1,4-dihydro-2H-isoquinolin-3-one]	1.59 nM
COc1cc2c(cc1OC(C)C)[C@H](c1ccc(Cl)cc1)N(c1ccc([C@@](C)(O)C3CCN(C(=O)CO)CC3)cc1)C(=O)C2 (single isomer, unassigned) [Example 133]	1.62 nM
[2H]C([2H])([2H])Oc1cc2c(cc1OC(C)C)[C@H](c1ccc(Cl)cc1)N(c1ccc([C@@](C)(O)C3CCS(=O)(=O)CC3)cc1)C(=O)C2 (single isomer, unassigned) [Example 153]	3.16 nM
CC(C)Oc1cc2c(cc1OC(F)F)CC(=O)N(c1ccc(C(C)(O)C3CCOCC3)cc1)C2c1ccc(Cl)cc1 (stereo not shown) [Example 165, 1-(4-Chloro-phenyl)-6-difluoromethoxy-2-{4-[1-hydroxy-1-(tetrahydro-pyran-4-yl)-ethyl]-phenyl}-7-isopropoxy-1,4-dihydro-2H-isoquinolin-3-one]	12 nM
